According to patent US5068064A, “N-substituted lauramides, their preparation and compositions in which they are present” (Sanofi, priority 1989, dated 1991):
Values after ≈ are worked out from the molar mass of the structure shown. Counter-ions that a name gives are not always drawn.

Assays:
[1] = tested on: Enterococcus faecium CIP 5855; test: Minimum bactericidal concentration, first method (30 min contact), E. faecium; type: cell-based; conditions: CIP5855, 0.5 h, contact time 30 minutes
From the text: (§1) In the two methods, a bacterial inoculum is brought into contact with different dilutions of the product for a determined period of time.
(§2) When the contact period has ended, an aliquot of the mixture of bacterial suspension and product is taken and brought into contact with an agent for neutralizing the bacterial activity of the mixture, either in a solid medium or in a liquid medium. The bactericidal activity of the product, expressed either as a concentration or as a percentage of active principle, corresponds to an absence of bacterial growth.
(§3) The first method makes it possible to define a minimum bactericidal concentration (MBC) or minimum fungicidal concentration (MFC), expressed in μg/ml. The contact time between product and bacterial suspension is 30 minutes. The neutralizer is included in agar.
(§4) The CIP bacterial strains chosen for the study, which are available from the Institut Pasteur, are:
(§5) The strains are maintained on Tryptic Soy Agar® (TSA) marketed by Difco.
(§6) After 24 hours of culture at 37° C., the microbial growth is harvested with the aid of glass beads and 10 ml of diluent containing 1 g of tryptone and 8.5 g of sodium chloride in 1000 ml of distilled water. The suspension formed is shaken and the percentage transmission of light at 620 nm is measured in a spectrophotometer:
(§7) The bacterial inoculum corresponds to a 1:20 dilution of this bacterial suspension.
(§8) Plates containing cupules receive different dilutions of the test product. These dilutions of the test product are brought into contact with the different bacterial suspensions using a multiple site inoculator. After a contact time of 30 minutes, aliquots are transferred with this inoculator to the surface of an agar medium (TSA) placed in Petri dishes containing an activity neutralizer, namely 20 g of lubrol W, 2.5 g of Tween 80, 2.5 g of sodium thiosulfate and 1% of egg yolk in 1000 ml of TSA (Difco). A control for the efficacy of the neutralizer is prepared for each test product by depositing an aliquot of the dilution of the test product on the surface of the culture medium. After drying, the corresponding inoculum is deposited in the same place. An inoculum control is prepared on agar medium with and without neutralizer. The results are read off after 48 hours of incubation at 37° C.
(§9) They indicate the minimum bactericidal concentrations (MBC) for strains 1, 2, 3 and 4 and the minimum fungicidal concentrations (MFC) for strain 5.

[2] = tested on: Staphylococcus aureus CIP 53154; test: Minimum bactericidal concentration, first method (30 min contact), S. aureus; type: cell-based; conditions: CIP53154, 0.5 h, contact time 30 minutes
From the text: as §1, §2, §3, §4
(§10) 1. Staphylococcus aureus
as §5, §6, §7, §8, §9

[3] = tested on: Pseudomonas aeruginosa CIP A22; test: Minimum bactericidal concentration, first method (30 min contact), P. aeruginosa; type: cell-based; conditions: CIPA22, 0.5 h, contact time 30 minutes
From the text: as §1, §2, §3, §4
4. Psuedomonas aeruginosa
as §5, §6, §7, §8, §9

[4] = tested on: Escherichia coli CIP 54127; test: Minimum bactericidal concentration, first method (30 min contact), E. coli; type: cell-based; conditions: CIP54127, 0.5 h, contact time 30 minutes
From the text: as §1, §2, §3, §4
(§11) 3. Escherichia coli CIP 54127
as §5, §6, §7, §8, §9

[5] = tested on: Escherichia coli CIP 54127; test: Percentage of bactericidal active principle, second method (5 min contact), E. coli; type: cell-based; conditions: destruction of 99.99%
From the text: as §1, §2
(§12) The second method makes it possible to define a percentage of bactericidal or fungicidal active principle by means of a simplified and automated adaptation of Afnor standards NF T 72-150 and NF T 72-170. In this method, the bactericidal activity of the product is determined with and without interfering substances. It is based on assessing the destruction of 99.99% of the initial bacteria by the product in 5 minutes. The interfering substances are of the protein type and are chosen for the actual conditions of application of this type of product. The contact time between product and bacterial suspension is 5 minutes, the neutralization step is 10 minutes and subculture is effected in a liquid medium.
(§13) The chosen bacterial strains are:
as §11, §5
(§14) The strains are harvested in a manner identical to the first method; these suspensions contain between 1.10^8 and 3.10^8 cells per milliliter. Appropriate dilutions make it possible to have a suspension containing 2 to 6.10^3 cells per milliliter.
(§15) The experiment is performed in microtiter plates; it comprises two steps. The first step, called the preliminary test, checks that the product is indeed neutralized. In the test proper, the different dilutions of the product are brought into contact with 2 to 6.10^3 cells per milliliter of the bacterial suspension in the second row of the microtiter plate. After a contact time of 5 minutes, an aliquot is transferred to the third row containing the neutralizer adapted to the product and to the strain. After a contact time of 10 minutes, aliquots are transferred to the last 5 rows containing Tryptic Soy Broth® (TSB) from Difco.
(§16) The interfering substances tested are a mixture of albumin and yeast extract. In the first row of the microplate, these proteins are brought into contact for 5 minutes with the different dilutions of the product. After this step, the same principle as above is applied: 5 minutes of contact with the germ, 10 minutes of contact with the neutralizer, transfer to TSB.

[6] = tested on: Pseudomonas aeruginosa CIP A22; test: Percentage of bactericidal active principle, second method (5 min contact), P. aeruginosa; type: cell-based; conditions: destruction of 99.99%
From the text: as §1, §2, §12, §13
4. Pseudomonas aeruginosa
as §5, §14, §15, §16

Product solubility = conditions: water
[7] = tested on: Staphylococcus aureus CIP 53154; test: Percentage of bactericidal active principle, second method (5 min contact), S. aureus; type: cell-based; conditions: destruction of 99.99%
From the text: as §1, §2, §12, §13, §10, §5, §14, §15, §16

[8] = tested on: Candida albicans CIP 1180; test: Minimum fungicidal concentration, first method (30 min contact), C. albicans; type: cell-based; conditions: CIP1180, 0.5 h, contact time 30 minutes
From the text: as §1, §2, §3, §8
The antifungal activity of the products according to the invention was also determined using the method described above. A representative strain of yeast was selected for the study: Candida albicans CIP 1180 (strain 5).
This is maintained on Sabouraud's Dextrose Agar marketed by Difco. The technique is identical to that described for studying the antibacterial activity. After 48 hours of culture at 37° C., the microbial growth is harvested with the aid of glass beads and 5 ml of diluent containing 1 g of tryptone and 8.5 g of sodium chloride in 1000 ml of distilled water; a further 5 ml of the diluent are then added. This suspension gives a percentage transmission of light at 620 nm of 2 to 3% in a spectrophotometer.
The inoculum corresponds to a 1:10 dilution of this microbial suspension. A 1:100 dilution of this suspension, observed between slide and cover glass through a No. 40 microscope objective, must show 10 cells per field, which corresponds to 1,000,000 yeasts per ml.
as §9

[9] = tested on: Candida albicans CIP 1180; test: Percentage of fungicidal active principle, second method (5 min contact), C. albicans; type: cell-based
From the text: as §1, §2, §12, §15, §16
The antifungal activity of the products according to the invention was also determined with and without interfering substances using the method described above. The same strain was used as for the first technique, namely Candida albicans CIP 1180. It is harvested in an identical manner to that described in the first method.

[10] = tested on: Enterococcus faecium CIP 5855; test: Percentage of bactericidal active principle, second method (5 min contact), E. faecium; type: cell-based; conditions: destruction of 99.99%
From the text: as §1, §2, §12, §13, §5, §14, §15, §16

[11] = tested on: Mycobacterium smegmatis CIP 7326; test: Percentage of bactericidal active principle, second method (5 min contact), M. smegmatis; type: cell-based; conditions: destruction of 99.99%
From the text: as §1, §2, §12, §13
5. Mycobacterium smegmatis
as §5, §14, §15, §16

[12] = Simple: without interfering substances
[13] = with proteins as interfering substances
[14] = Simple: without interfering substances, * activity limited to the zone indicated

CCCCCCCCCCCC(=O)NCCN(C)Cc1ccccc1 [SR 45525]
MBC [1]: 10 µg/mL (≈ 28.9 µM)
MBC [2]: 50 µg/mL (≈ 144 µM)
MBC [3]: 50 µg/mL (≈ 144 µM)
MBC [4]: 10 µg/mL (≈ 28.9 µM)
Bactericidal activity, results in percentage of active principle, E. coli [5, 12]: 0.005 percentage of active principle
Bactericidal activity, results in percentage of active principle, E. coli [5, 13]: 0.1 percentage of active principle
Bactericidal activity, results in percentage of active principle, P. aeruginosa [6, 12]: 0.005 percentage of active principle
Bactericidal activity, results in percentage of active principle, P. aeruginosa [6, 13]: 0.5 percentage of active principle
solubility (Product solubility): > 50 mg/mL
Bactericidal activity, results in percentage of active principle, S. aureus [7, 14]: 0.05 percentage of active principle
Bactericidal activity, results in percentage of active principle, S. aureus [7, 13]: 0.5 percentage of active principle
MFC [8]: 50 µg/mL (≈ 144 µM)
Fungicidal activity, results in percentage of active principle, C. albicans [9, 12]: 0.05 percentage of active principle
Fungicidal activity, results in percentage of active principle, C. albicans [9, 13]: 0.5 percentage of active principle
Bactericidal activity, results in percentage of active principle, E. faecium [10, 12]: 0.01 percentage of active principle
Bactericidal activity, results in percentage of active principle, E. faecium [10, 13]: 0.5 percentage of active principle
Bactericidal activity, results in percentage of active principle, M. smegmatis [11, 13]: 0.1 percentage of active principle

CCCCCCCCCCCC(=O)NCCN1CCC(Cc2ccccc2)CC1.Cl [SR 44944 A, N-[2-(4-Benzylpiperidino)ethyl]lauramide hydrochloride]
MBC [1]: 10 µg/mL
MBC [2]: 10 µg/mL
MBC [3]: 50 µg/mL
MBC [4]: 10 µg/mL
Bactericidal activity, results in percentage of active principle, E. coli [5, 12]: 0.01 percentage of active principle
Bactericidal activity, results in percentage of active principle, E. coli [5, 13]: < 0.01 percentage of active principle
Bactericidal activity, results in percentage of active principle, P. aeruginosa [6, 12]: < 0.01 percentage of active principle
Bactericidal activity, results in percentage of active principle, P. aeruginosa [6, 13]: 0.25 percentage of active principle
Bactericidal activity, results in percentage of active principle, S. aureus [7, 14]: < 0.01 percentage of active principle
Bactericidal activity, results in percentage of active principle, S. aureus [7, 13]: 0.1 percentage of active principle
MFC [8]: 10 µg/mL
Fungicidal activity, results in percentage of active principle, C. albicans [9, 12]: 0.01 percentage of active principle
Fungicidal activity, results in percentage of active principle, C. albicans [9, 13]: 0.06 percentage of active principle
Bactericidal activity, results in percentage of active principle, E. faecium [10, 12]: < 0.01 percentage of active principle
Bactericidal activity, results in percentage of active principle, E. faecium [10, 13]: 0.03 percentage of active principle
Bactericidal activity, results in percentage of active principle, M. smegmatis [11, 14]: > 0.5 percentage of active principle
Bactericidal activity, results in percentage of active principle, M. smegmatis [11, 13]: 0.06 percentage of active principle

CCCCCCCCCCCC(=O)NCCCN(C)Cc1ccccc1 [SR 45583 A, N-(3-Benzylmethylaminopropyl)lauramide hydrochloride]
MBC [1]: 10 µg/mL
MBC [2]: 50 µg/mL
MBC [3]: 50 µg/mL
MBC [4]: 10 µg/mL
Bactericidal activity, results in percentage of active principle, E. coli [5, 12]: 0.05 percentage of active principle
Bactericidal activity, results in percentage of active principle, E. coli [5, 13]: 0.1 percentage of active principle
Bactericidal activity, results in percentage of active principle, P. aeruginosa [6, 12]: 0.01 percentage of active principle
Bactericidal activity, results in percentage of active principle, P. aeruginosa [6, 13]: 0.5 percentage of active principle
solubility (Product solubility): > 50 mg/mL
Bactericidal activity, results in percentage of active principle, S. aureus [7, 14]: 0.05 percentage of active principle
Bactericidal activity, results in percentage of active principle, S. aureus [7, 13]: 0.5 percentage of active principle
MFC [8]: 50 µg/mL
Fungicidal activity, results in percentage of active principle, C. albicans [9, 12]: 0.05 percentage of active principle
Fungicidal activity, results in percentage of active principle, C. albicans [9, 13]: 0.1 percentage of active principle
Bactericidal activity, results in percentage of active principle, E. faecium [10, 12]: 0.01 percentage of active principle
Bactericidal activity, results in percentage of active principle, E. faecium [10, 13]: 0.05 percentage of active principle
Bactericidal activity, results in percentage of active principle, M. smegmatis [11, 14]: 0.01 percentage of active principle
Bactericidal activity, results in percentage of active principle, M. smegmatis [11, 13]: 0.05 percentage of active principle
